According to patent US20190231757A1, “COMBINATION OF SPLEEN TYROSINE KINASE INHIBITORS AND OTHER THERAPEUTIC AGENTS” (Takeda Pharmaceutical Company Limited, priority 2016, published 2019):

Legend:
[1] = tested on: OCI-Ly10 human lymphoma xenografts; test: Antitumor activity in SCID mice bearing OCI-Ly10 human lymphoma xenografts, lenalidomide combination (Example 10); assay type: in vivo, mouse; details: alone or combined
[2] = Day 0 to Day 21; Compound A 60 mg/kg; lenalidomide 10 mg/kg; alone or combined
[3] = Day 0 to Day 21; Compound A 30 mg/kg; bendamustine 1 mg/kg; rituximab 1 mg/kg; alone or combined
[4] = Body weight and tolerability, Ly19 bendamustine study (Example 4); details: for body weight Change (%), Day 3: Day 3 vs Day 0; for body weight Change (%), Day 7: Day 7 vs Day 0; for body weight Change (%), Day 10: Day 10 vs Day 0; for body weight Change (%), Day 14: Day 14 vs Day 0
[5] = Body weight and tolerability, TMD8 bendamustine study (Example 3); details: Compound A 60 mg/kg PO QD 14 d, alone or combined
[6] = tested on: OCI-Ly10 human DLBCL xenografts; test: Antitumor activity in SCID mice bearing OCI-Ly10 human DLBCL xenografts, ibrutinib or bendamustine combination (Example 5); assay type: in vivo, mouse; details: Day 21, Compound A 60 mg/kg PO QD, ibrutinib 6 mg/kg PO QD, bendamustine 1 mg/kg IV BIW (6 doses), alone or combined with Compound A
[7] = tested on: Ly19 xenografts; test: Antitumor activity in SCID mice bearing Ly19 xenografts, bendamustine combination (Example 4); assay type: in vivo, mouse; details: for Mean Tumor Volume (mm^3) ± SEM at Day 14 / TGI (%): Day 14; for dAUC: vs vehicle
[8] = tested on: OCI-Ly10 human lymphoma xenografts; test: Antitumor activity in SCID mice bearing OCI-Ly10 human lymphoma xenografts, bendamustine and rituximab (Example 6); assay type: in vivo, mouse; details: Day 21; Compound A 30 mg/kg PO QD x21; bendamustine 1 mg/kg IV BIW; rituximab 1 mg/kg IV QW x3; alone or combined
[9] = tested on: TMD8 DLBCL xenografts; test: Antitumor activity in CB17 SCID mice bearing TMD8 DLBCL xenografts, bendamustine combination (Example 3); assay type: in vivo, mouse; details: bendamustine 1 mg/kg IV BIW, alone or combined, Day 14
[10] = Compound A 60 mg/kg, bendamustine 1.0 mg/kg, alone or combined
[11] = bendamustine 2.0 mg/kg, alone or with Compound A 60 mg/kg
[12] = Compound A 60 mg/kg PO QD x14, bendamustine 1.0 mg/kg IV BIW x2, alone or combined
[13] = bendamustine 2.0 mg/kg IV BIW x2, alone or with Compound A 60 mg/kg PO QD x14

Nc1cccc2c1CN(C1CCC(=O)NC1=O)C2=O (centres unmarked) [lenalidomide]
TGI ([1]; Day 21, Compound A 60 mg/kg PO QD x21, lenalidomide 10 mg/kg PO QD x21): 21.1% | ΔAUC ([1]; vs vehicle, Compound A 60 mg/kg, lenalidomide 10 mg/kg): 15.2 (p = 0.014) | Mean maximum % BWL [2]: 0%

Cn1c(CCCC(=O)O)nc2cc(N(CCCl)CCCl)ccc21 [bendamustine]
Maximum mean % BWL [3]: 0% | animal body weight (g), Day 0 ([4]; Day 0, Compound A 60 mg/kg PO QD x14, bendamustine 1.0 mg/kg IV BIW x2, alone or combined, mean of 8): 19.7 g | animal body weight (g), Day 3 ([4]; Day 3, Compound A 60 mg/kg, bendamustine 1.0 mg/kg, alone or combined): 19.9 g | body weight Change (%), Day 3 [4, 10]: +0.9% | body weight Change (%), Day 3 [4, 11]: +2.0% | body weight Change (%), Day 7 [4, 10]: +3.7% | body weight Change (%), Day 7 [4, 11]: +3.2% | animal body weight (g), Day 10 [4, 10]: 21.2 g | animal body weight (g), Day 10 [4, 11]: 21.7 g | body weight Change (%), Day 10 [4, 10]: +7.7% | body weight Change (%), Day 10 [4, 11]: +6.2% | animal body weight (g), Day 14 [4, 10]: 22.3 g | animal body weight (g), Day 14 [4, 11]: 22.6 g | body weight Change (%), Day 14 [4, 10]: +13.1% | body weight Change (%), Day 14 [4, 11]: +10.8% | % BW Change (Day Maximum) ([5]; bendamustine 1 mg/kg IV BIW 14 d, maximum change within treatment period): 13.1 (14) % | Number of animals removed ([5]; bendamustine 1 mg/kg IV BIW): 0 | TGI [6]: 43.7% | TGI ([6]; listed as Bendamustine): 43.7% | Mean Tumor Volume (mm^3) ± SEM at Day 14 [7, 12]: 2092.9 ± 175.8 mm^3 | TGI (%) [7, 12]: 16.2% | Mean Tumor Volume (mm^3) ± SEM at Day 14 [7, 13]: 2029.8 ± 248.8 mm^3 | TGI (%) [7, 13]: 18.7% | dAUC [7, 10]: 10.9 | dAUC [7, 11]: 11.9 | TGI [8]: 49.7% | Mean Tumor Volume (mm^3) ± SEM ([9]; Compound A 60 mg/kg PO QD 14 d): 1,529.2 ± 275.9 mm^3 | T/C ([9]; Compound A 60 mg/kg PO QD): 0.87 | TGI (%) ([9]; Compound A 60 mg/kg PO QD): 13.4%
